Target: human V1a receptor (Homo sapiens (Human), UniProt P37288)
Assay: human V1a receptor binding studies (3H-Vasopressin, SPA beads)
Details: membranes of HEK293 cells transiently transfected with human V1a receptor, Ki by Cheng-Prusoff
Experimental: The human V1a receptor was cloned by RT-PCR from total human liver RNA. The coding sequence was subcloned in an expression vector after sequencing to confirm the identity of the amplified sequence. […] Cell membranes were prepared from HEK293 cells transiently transfected with the expression vector and grown in 20 liter fermenters with the following protocol.
50 g of cells are re-suspended in 30 ml freshly prepared ice cold Lysis buffer ([…] HEPES. 1 mM EDTA, 10 mM MgCl2 adjusted to pH=7.4+complete cocktail of protease inhibitor (Roche Diagnostics)). Homogenized with Polytron for 1 min and sonicated on ice for 2×2 minutes at 80% intensity (Vibracell sonicator). The preparation is centrifuged 20 min at 500 g at 4° C., the pellet is discarded and the supernatant centrifuged 1 hour at 43'000 g at 4° C. (19'000 rpm). The pellet is re-suspended in 12.5 ml Lysis buffer+12.5 ml Sucrose 20% and homogenized using a Polytron for 1-2 min. The protein concentration is determined by the Bradford method and aliquots are stored at −80° C. until use. For binding studies 60 mg Yttrium silicate SPA beads (Amersham) are mixed with an aliquot of membrane in binding buffer (50 mM Tris, 120 mM NaCl, 5 mM KCl, 2 mM CaCl2, 10 mM MgCl) for 15 minutes with mixing. 50 μl of bead/membrane mixture is then added to each well of a 96 well plate, followed by […] of 4 nM 3H-Vasopressin (American Radiolabeled Chemicals). For total binding measurement 100 μl of binding buffer are added to the respective wells, for non-specific binding 100 μl of […] cold vasopressin and for compound testing 100 μl of a serial dilution of each compound in 2% DMSO. The plate is incubated 1 h at room temperature, centrifuged 1 min at 1000 g and counted on a Packard Top-Count. Non-specific binding counts are subtracted from each well and data is normalized to the maximum specific binding set at 100%. To calculate an IC 50 the curve is fitted using a non-linear regression model (XLfit) and the Ki is calculated using the Cheng-Prussoff equation.

Chain of human V1a receptor (P37288 whole entry): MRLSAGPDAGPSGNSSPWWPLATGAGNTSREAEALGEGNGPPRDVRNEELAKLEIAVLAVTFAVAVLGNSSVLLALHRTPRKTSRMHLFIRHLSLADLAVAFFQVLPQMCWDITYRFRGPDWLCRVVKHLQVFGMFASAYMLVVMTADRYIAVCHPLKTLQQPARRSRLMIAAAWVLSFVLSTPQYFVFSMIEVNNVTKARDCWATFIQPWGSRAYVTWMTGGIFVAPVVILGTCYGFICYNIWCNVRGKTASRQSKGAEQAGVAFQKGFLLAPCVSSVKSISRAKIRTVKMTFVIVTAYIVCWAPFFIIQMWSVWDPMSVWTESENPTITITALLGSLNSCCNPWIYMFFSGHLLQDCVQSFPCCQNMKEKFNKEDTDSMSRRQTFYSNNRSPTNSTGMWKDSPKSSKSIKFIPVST

| SMILES | pKi hV1a |
| --- | --- |
| O=C1N=C(N2CCC3(CC2)OCc2ccccc23)OC12Cc1cnc(C(F)F)cc1C2 (stereo not shown) [Example 60, 3-(difluoromethyl)-2′-(1′H,3H-spiro[2-benzofuran-1,4′-piperidin]-1′-yl)-5,7-dihydro-4′H-spiro[cyclopenta[c]pyridine-6,5′-[1,3]oxazol]-4′-one] | 7.7 |
| Cc1cc2c(cc1C)CC1(C2)OC(N2CCC3(CC2)OCc2ccccc23)=NC1=O [Example 25, 5,6-dimethyl-2′-(1′H,3H-spiro[2-benzofuran-1,4′-piperidin]-1′-yl)-1,3-dihydro-4′H-spiro[indene-2,5′-[1,3]oxazol]-4′-one] | 7.1 |
| Cc1ccc2c(c1)C(=O)OC21CCN(C2=NC(=O)C3(Cc4ccccc4C3)O2)CC1 [Example 6, 5-methyl-1′-(4′-oxo-1,3-dihydro-4′H-spiro[indene-2,5′-[1,3]oxazol]-2′-yl)-3H-spiro[2-benzofuran-1,4′-piperidin]-3-one] | 8.8 |
| CC1(C)OC2(CCN(C3=NC(=O)C4(Cc5ccccc5C4)O3)CC2)c2cc(O)cnc21 [Example 71, 2′-(3-hydroxy-7,7-dimethyl-1′H,7H-spiro[furo[3,4-b]pyridine-5,4′-piperidin]-1′-yl)-1,3-dihydro-4′H-spiro[indene-2,5′-[1,3]oxazol]-4′-one] | 10.2 |
| CC1(C)OC2(CCN(C3=NC(=O)C4(Cc5ccccc5C4)O3)CC2)c2ccc[n+]([O-])c21 [Example 70, 2′-(7,7-dimethyl-1-oxido-1′H,7H-spiro[furo[3,4-b)pyridine-5,4′-piperidin]-1′yl)-1,3-dihydro-4′H-spiro[indene-2,5′-[1,3]oxazol]-4′-one] | 7.3 |
| O=C1OC2(CCN(C3=NC(=O)C4(Cc5ccccc5C4)O3)CC2)c2c1ccnc2Cl [Example 55, 4-chloro-1′-(4-oxo-1,3-dihydro-4′H-spiro[indene-2,5′-[1,3]oxazol]-2′-yl)-1H-spiro[furo[3,4-c]pyridine-3,4′-piperidin]-1-one] | 6.5 |
| O=C1N=C(N2CCC3(CC2)OCc2ccccc23)OC12Cc1ccccc1C2 [Example 1, 2′-(1′H,3H-spiro[2-benzofuran-1,4′-piperidin]-1′-yl)-1,3-dihydro-4′H-spiro[indene-2,5′-[1,3]oxazol]-4′-one] | 9.5 |
| COc1cc2c(cc1OC)C1(CCN(C3=NC(=O)C4(Cc5ccccc5C4)O3)CC1)OC2=O [Example 12, 5,6-dimethoxy-1′-(4′-oxo-1,3-dihydro-4′H-spiro[indene-2,5′-[1,3]oxazol)-2′-yl)-3H-spiro[2-benzofuran-1,4′-piperidin]-3-one] | 7.5 |
| Cc1ccc2c(n1)COC21CCN(C2=NC(=O)C3(Cc4ccccc4C3)O2)CC1 [Example 48, 2′-(2-methyl-1′H,7H-spiro[furo[3,4-b]pyridine-5,4′-piperidin]-1′-yl)-1,3-dihydro-4′H-spiro[indene-2,5′-[1,3]oxazol]-4′-one] | 7.9 |
| Cc1cc2c(cn1)CC1(C2)OC(N2CCC3(CC2)OCc2ccccc23)=NC1=O (stereo not shown) [Example 58, 3-methyl-2′-(1′H,3H-spiro[2-benzofuran-1,4′-piperidin]-1′-yl)-5,7-dihydro-4′H-spiro[cyclopenta[c]pyridine-6,5′-[1,3]oxazol]-4′-one] | 7.7 |
| Cc1ccc2c(c1)C1(CCN(C3=NC(=O)C4(Cc5ccccc5C4)O3)CC1)OC2=O [Example 7, 6-methyl-1′-(4′-oxo-1,3-dihydro-4′H-spiro[indene-2,5′-[1,3]oxazol]-2′-yl)-3H-spiro[2-benzofuran-1,4′-piperidin]-3-one] | 8.8 |
| O=C1OC2(CCN(C3=NC(=O)C4(Cc5ccccc5C4)O3)CC2)c2cnc(Cl)cc21 [Example 54, 6-chloro-1′-(4′-oxo-1,3-dihydro-4′H-spiro[indene-2,5′-[1,3]oxazol]-2′-yl)-1H-spiro[furo[3,4-c]pyridine-3,4′-piperidin]-1-one] | 7.4 |
| O=C1OC2(CCN(C3=NC(=O)C4(Cc5ccccc5C4)O3)CC2)c2cc(Cl)ccc21 [Example 17, 6-chloro-1′-(4-oxo-1,3-dihydro-4′H-spiro[indene-2,5′-[1,3]oxazol]-2′-yl)-3H-spiro[2-benzofuran-1,4′-piperidin]-3-one] | 8.6 |

— patent US11578077B2, “Spiro-oxazolones” (Hoffmann-La Roche Inc., priority 2013, dated 2023)
